In patent EP1799188B1, “USE OF PEPTIDES AS AN ANTIOXIDANT AGENT FOR THE PREPARATION OF A COSMETIC AND/OR PHARMACEUTICAL COMPOSITION” (Ashland Specialties France, priority 2004, dated 2015):

Tested on: fibroblastes primaires
Test: Neutral red uptake cytotoxicity / cell viability test
Type: cell-based
Conditions: actif 1 %
Description: Des fibroblastes primaires sont ensemencés sur une plaque 96 puits (à 20000 cellules par puits environ). Une fois que les cellules ont atteint 70 % de confluence, le dipeptide dimérisé Cys-Gly selon l'invention, dilué à 1 %, est appliqué sur la plaque durant 24 heures. Une moitié de la plaque est alors irradiée par des UVB à 100 mJ/cm^2 et l'autre moitié non irradiée. Les cellules sont ensuite remises en culture pendant 24 h en présence de l'actif, puis incubées en présence de rouge neutre.
Le rouge neutre (un colorant « supravital ») se fixe spécifiquement aux lysosomes des cellules vivantes, la coloration sera ainsi proportionnelle à la viabilité des cellules. Après l'ajout d'une solution de révélation, solubilisant le rouge neutre, l'absorbance est mesurée à 540 nm.
Les résultats obtenus, représentés dans le tableau ci-dessous, représentent le pourcentage de viabilité cellulaire en fonction des différentes conditions étudiées, par rapport à la condition contrôle.

SMILES: N[C@@H](CSSC[C@H](N)C(=O)NCC(=O)O)C(=O)NCC(=O)O [actif]
- cytotoxicité (nocivité pour les cellules): n'est pas nocif pour les cellules
